Patent US9682978B2, “2,6,7 substituted purines as HDM2 inhibitors” (Merck Sharp & Dohme Corp., priority 2013, dated 2017)

target: T1, HDM2 (Homo sapiens, UniProt Q00987); assay: HDM2 FRET assay (inhibition of p53 peptide binding to HDM2); conditions: Table 1; truncated HDM2 residues 17 to 125, 0.5 nM HDM2, 3 nM FITC labeled 8-mer peptide, two hour incubation
T1 construct: Thioredoxin (N); made in house; host or cells: E. coli BL21(DE3)Rosetta (pET32a)
Excerpt: Methods: An HDM2 FRET assay was developed to assess the compounds' inhibitory activity towards binding of p53 protein. A truncated version of HDM2 with residues 17 to 125 (containing p53 binding surface, Science (1994) 265, 346-355), with N-terminal His and Thioredoxin tag was generated in pET32a expression vector and expressed in E. coli strain BL21(DE3)Rosetta. Protein was purified using Ni-affinity chromatography, followed by size exclusion chromatography using Superdex 75 26/60 column. To assess inhibition of p53 binding to HDM2, a FITC labeled 8-mer peptide (sequence: Ac-Phe-Arg-Dpr-Ac6c-(6-Br)Trp-Glu-Glu-Leu-NH2; Anal Biochem. 2004 Aug. 1; 331(1):138-46) with strong affinity towards p53 binding pocket of HDM2 was used. The HDM2 assay buffer contained 1× Phosphate Buffered Saline (Invitrogen, Cat#14190), 0.01% BSA (Jackson ImmunoResearch, Cat#001-000-162), 0.01% Tween-20. In the 1× assay buffer recombinant HDM2 protein, peptide and Lumi4-Tb Cryptate-conjugate mouse anti-6×HIS antibody (cisbio, Cat#Tb61HISTLB) were added and transferred to ProxiPlate PLUS (PerkinElmer, Cat#6008269), containing compounds so that final DMSO concentration is 0.1%. Final concentrations of reagents in the assay wells are 0.5 nM HDM2, 0.25 nM anti HIS (Tb label) antibody and 3 nM peptide. After two hour incubation at room temperature in a humidified chamber plates were read on EnVision plate reader with the following settings: excitation: UV, […], two emission filters: 520 nm and 495 nm respectively. Ratio of em520/em495 was used to calculate % inhibition and to obtain IC50 with 4-parameter logistic equation.
IC50 DETERMINATIONS: Dose-response curves were plotted from the inhibition data, from 10 point serial dilutions of inhibitory compounds. Concentration of compound was plotted against em520/Cem495 ratio signal. To generate IC50 values, the dose-response curves were fitted to a standard sigmoidal curve and IC50 values were derived by nonlinear regression analysis. IC50 values in the above table are rounded to the nearest integer.

T1 sequence (Q00987 17-125): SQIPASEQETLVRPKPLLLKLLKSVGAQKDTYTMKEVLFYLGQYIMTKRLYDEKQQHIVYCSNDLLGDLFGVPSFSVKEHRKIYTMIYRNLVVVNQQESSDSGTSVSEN

| SMILES | IC50 [nM] |
| --- | --- |
| C[C@@H](Nc1nc(C(=O)NS(=O)(=O)N(C)C)nc2ncn(C[C@H]3CC[C@H](C)CC3)c12)C1CCC1 [Example 1.4, 6-{[(1R)-1-cyclobutylethyl]amino}-N-(dimethylsulfamoyl)-7-[(trans-4-methylcyclohexyl)methyl]-7H-purine-2-carboxamide] | 733 |
| C[C@@H](Nc1nc(C(=O)O)nc2ncn(Cc3cc4ccccc4s3)c12)C1CC1 [Example 1.8, 7-(1-benzothiophen-2-ylmethyl)-6-{[(1R)-1-cyclopropylethyl]amino}-7H-purine-2-carboxylic acid] | 2420 |
| C[C@@H](Nc1nc(C(=O)O)nc2ncn(C[C@H]3CC[C@H](C)CC3)c12)C1CCC1 [Example 1.2, 6-{[(1R)-1-cyclobutylethyl]amino}-7-[(trans-4-methylcyclohexyl)methyl]-7H-purine-2-carboxylic acid] | 68.5 |
| C[C@@H](Nc1nc(-c2n[nH]c(=O)o2)nc2ncn(C[C@H]3CC[C@H](C)CC3)c12)C1CCC1 [Example 1.15, 5-(6-{[(1R)-1-cyclobutylethyl]amino}-7-[(trans-4-methylcyclohexyl)methyl]-7H-purin-2-yl)-1,3,4-oxadiazol-2(3H)-one] | 52.5 |
| C[C@H]1CC[C@H](Cn2cnc3nc(-c4noc(=O)[nH]4)nc(N4CCCC(F)(F)C4)c32)CC1 [Example 1.6, 3-{6-(3,3-difluoropiperidin-1-yl)-7-[(trans-4-methylcyclohexyl)methyl]-7H-purin-2-yl}-1,2,4-oxadiazol-5(4H)-one] | 820 |
| C[C@@H](Nc1nc(-c2noc(=O)[nH]2)nc2ncn(C[C@H]3CC[C@H](C)CC3)c12)C1CCC1 [Example 1.7, 3-(6-{[(1R)-1-cyclobutylethyl]amino}-7-[(trans-4-methylcyclohexyl)methyl]-7H-purin-2-yl)-1,2,4-oxadiazol-5(4H)-one] | 51.3 |
| C[C@@H](Nc1nc(C(=O)O)nc2ncn(Cc3ccc(C(F)(F)F)cc3)c12)C1CCC1 [Example 1.13, 6-{[(1R)-1-cyclobutylethyl]amino}-7-[4-(trifluoromethyl)benzyl]-7H-purine-2-carboxylic acid] | 81.6 |
| C[C@H]1CC[C@H](Cn2cnc3nc(-c4noc(=O)[nH]4)nc(Oc4cccc(Cl)c4)c32)CC1 [Example 1.5, 3-{6-(3-chlorophenoxy)-7-[(trans-4-methylcyclohexyl)methyl]-7H-purin-2-yl}-1,2,4-oxadiazol-5(4H)-one] | 392 |
| C[C@@H](Nc1nc(-c2noc(=O)[nH]2)nc2ncn(Cc3ccc(C(F)(F)F)cc3)c12)C1CCC1 [Example 1.14, 3-(6-{[(1R)-1-cyclobutylethyl]amino}-7-[4-(trifluoromethyl)benzyl]-7H-purin-2-yl)-1,2,4-oxadiazol-5(4H)-one] | 21.6 |

same assay, conditions: Table 2; truncated HDM2 residues 17 to 125, 0.5 nM HDM2, 3 nM FITC labeled 8-mer peptide, two hour incubation

| SMILES | IC50 [nM] |
| --- | --- |
| C[C@H]1CC[C@H](Cn2cnc3nc(-c4noc(=O)[nH]4)nc(-c4cc(Cl)cc(N5CCCC5)c4)c32)CC1 [Example 2.18, 3-{6-(3-chloro-5-pyrrolidin-1-ylphenyl)-7-[(trans-4-methylcyclohexyl)methyl]-7H-purin-2-yl}-1,2,4-oxadiazol-5(4H)-one] | 331 |
| C[C@H]1CC[C@H](Cn2cnc3nc(-c4noc(=O)[nH]4)nc(-c4cc(Cl)ccc4O)c32)CC1 [Example 2.5, 3-{6-(5-chloro-2-hydroxyphenyl)-7-[(trans-4-methylcyclohexyl)methyl]-7H-purin-2-yl}-1,2,4-oxadiazol-5(4H)-one] | 842 |
| C[C@H]1CC[C@H](Cn2cnc3nc(C(=O)O)nc(-c4cncc(Cl)c4)c32)CC1 [Example 2.20, 6-(5-chloropyridin-3-yl)-7-[(trans-4-methylcyclohexyl)methyl]-7H-purine-2-carboxylic acid] | 213 |
| C[C@H]1CC[C@H](Cn2cnc3nc(-c4noc(=O)[nH]4)nc(-c4cc(Cl)ccn4)c32)CC1 [Example 2.3, 3-{6-(4-chloropyridin-2-yl)-7-[(trans-4-methylcyclohexyl)methyl]-7H-purin-2-yl}-1,2,4-oxadiazol-5(4H)-one] | 251 |
| C[C@H]1CC[C@H](Cn2cnc3nc(-c4noc(=O)[nH]4)nc(-c4ccnc(Cl)c4F)c32)CC1 [Example 2.2, 3-{6-(2-chloro-3-fluoropyridin-4-yl)-7-[(trans-4-methylcyclohexyl)methyl]-7H-purin-2-yl}-1,2,4-oxadiazol-5(4H)-one] | 134 |
| CNC(=O)c1cc(Cl)cc(-c2nc(-c3noc(=O)[nH]3)nc3ncn(C[C@H]4CC[C@H](C)CC4)c23)c1 [Example 2.10, 3-chloro-N-methyl-5-{7-[(trans-4-methylcyclohexyl)methyl]-2-(5-oxo-4,5-dihydro-1,2,4-oxadiazol-3-yl)-7H-purin-6-yl}benzamide] | 71.8 |
| C[C@H]1CC[C@H](Cn2cnc3nc(-c4noc(=O)[nH]4)nc(-c4cc(Cl)cc(C(F)(F)F)c4)c32)CC1 [Example 2.11, 3-{6-[3-chloro-5-(trifluoromethyl)phenyl]-7-[(trans-4-methylcyclohexyl)methyl]-7H-purin-2-yl}-1,2,4-oxadiazol-5(4H)-one] | 172 |
| Cc1ncc(Cl)cc1-c1nc(-c2noc(=O)[nH]2)nc2ncn(C[C@H]3CC[C@H](C)CC3)c12 [Example 2.21, 3-{6-(5-chloro-2-methylpyridin-3-yl)-7-[(trans-4-methylcyclohexyl)methyl]-7H-purin-2-yl}-1,2,4-oxadiazol-5(4H)-one] | 87.8 |
| COC(=O)c1cc(C)cc(-c2nc(-c3noc(=O)[nH]3)nc3ncn(C[C@H]4CC[C@H](C)CC4)c23)c1 [Example 2.19, methyl 3-methyl-5-{7-[(trans-4-methylcyclohexyl)methyl]-2-(5-oxo-4,5-dihydro-1,2,4-oxadiazol-3-yl)-7H-purin-6-yl}benzoate] | 579 |
| COCCOc1cc(Cl)cc(-c2nc(-c3noc(=O)[nH]3)nc3ncn(C[C@H]4CC[C@H](C)CC4)c23)c1 [Example 2.22, 3-{6-[3-chloro-5-(2-methoxyethoxyl)phenyl]-7-[(trans-4-methylcyclohexyl)methyl]-7H-purin-2-yl}-1,2,4-oxadiazol-5(4H)-one] | 68.5 |
| C[C@H]1CC[C@H](Cn2cnc3nc(-c4noc(=O)[nH]4)nc(-c4cccc(Cl)c4)c32)CC1 [Example 2.1, 3-{6-(3-chlorophenyl)-7-[(trans-4-methylcyclohexyl)methyl]-7H-purin-2-yl}-1,2,4-oxadiazol-5(4H)-one] | 53.4 |

same assay, conditions: Table 3; truncated HDM2 residues 17 to 125, 0.5 nM HDM2, 3 nM FITC labeled 8-mer peptide, two hour incubation

| SMILES | IC50 [nM] |
| --- | --- |
| CCC1CCC(Cn2cnc3nc(-c4noc(=O)[nH]4)nc(N[C@H](C)C4CCC4)c32)C1 (mixture of isomers) [Example 3.10, 3-(6-(((R)-1-cyclobutylethyl)amino)-7-((3-ethylcyclopentyl)methyl)-7H-purin-2-yl)-1,2,4-oxadiazol-5(4H)-one] | 313 |
| C[C@@H]1CC[C@@H](Cn2cnc3nc(-c4noc(=O)[nH]4)nc(-c4cccc(Cl)c4)c32)CC1(F)F (single isomer, unassigned) [Example 3.16, 3-[6-(3-chlorophenyl)-7-{[(trans)-3,3-difluoro-4-methylcyclohexyl]methyl}-7H-purin-2-yl]-1,2,4-oxadiazol-5(4H)-one] | 848 |
| C[C@@H]1CC[C@@H](Cn2cnc3nc(-c4noc(=O)[nH]4)nc(-c4cccc(Cl)c4)c32)CC1(F)F (single isomer, unassigned) [Example 3.15, 3-[6-(3-chlorophenyl)-7-{[(trans)-3,3-difluoro-4-methylcyclohexyl]methyl}-7H-purin-2-yl]-1,2,4-oxadiazol-5(4H)-one] | 430 |
| CC1=C(F)CC(Cn2cnc3nc(-c4noc(=O)[nH]4)nc(N[C@H](C)C4CCC4)c32)CC1 (mixture of isomers) [Example 3.6, 3-(6-{[(1R)-1-cyclobutylethyl]amino}-7-[(3-fluoro-4-methylcyclohex-3-en-1-yl)methyl]-7H-purin-2-yl)-1,2,4-oxadiazol-5(4H)-one] | 149 |
| C[C@@H](Nc1nc(-c2noc(=O)[nH]2)nc2ncn(CC3CCC4(CC3)CC4)c12)C1CCC1 [Example 3.3, 3-[6-{[(1R)-1-cyclobutylethyl]amino}-7-(spiro[2.5]oct-6-ylmethyl)-7H-purin-2-yl]-1,2,4-oxadiazol-5(4H)-one] | 1430 |
| O=c1[nH]c(-c2nc(-c3cccc(Cl)c3)c3c(ncn3C[C@H]3CC[C@H](C(F)(F)F)CC3)n2)no1 [Example 3.2, 3-[6-(3-chlorophenyl)-7-{[trans-4-(trifluoromethyl)cyclohexyl]methyl}-7H-purin-2-yl]-1,2,4-oxadiazol-5(4H)-one] | 437 |
| CCC1CCC(Cn2cnc3nc(C(=O)O)nc(N[C@H](C)C4CCC4)c32)C1 (single isomer, unassigned) [Example 3.11] | 677 |
